Results on one compound are retold here after patent publication US12514843B2, “Biofilm disruption” (QBIOTICS PTY LTD, priority 2019, dated 2026).

Converted amounts (≈) assume the structure as drawn.

In experiment [1] the test system is Pseudomonas aeruginosa PAO1. Nature of the experiment: Minimum inhibitory concentration (MIC) assay, planktonic culture, broth dilution. In kind it is cell-based. Details: key: C = confluent growth, i.e. no MIC could be determined at any concentration tested. Particulars: P. aeruginosa, planktonic culture in Mueller-Hinton broth; mean of three replicate tests. As to the method: (§1) The effects of five epoxytiglienones (Compounds 1, 2, 3, 4 and 6) and two comparator comparator compounds (epoxytiglienones having longer carbon chains at the C12 position) on six human pathogenic bacteria (two Gram-positive and four Gram-negative species) were measured in conventional planktonic culture systems. A minimum inhibitory concentrations (MIC) assay (the standard assay employed to define and quantify antibiotic activity) was performed to determine antibacterial activity for each epoxytiglienone against each bacterial strain.
(§2) The Gram-positive bacteria used in this study were methicillin resistant Staphylococcus aureus (MRSA) 1004A and Streptococcus pyogenes. The Gram-negative bacteria used in this study were Pseudomonas aeruginosa PAO1, Escherichia coli IR57 (V7), Klebsiella pneumoniae, and Acinetobacter baumannii 7789 (V19). MIC assays were performed on planktonic cultures of each bacteria grown in Mueller-Hinton broth using the standard broth dilution method described by Jorgensen et al. (1999) using epoxytiglienones dissolved in ethanol.
Background: In broth dilution the organism is exposed to a series of concentrations in liquid medium.

Experiment [2] has as its system methicillin resistant Staphylococcus aureus (MRSA) 1004A. The experiment is described as above. The format is cell-based. Details: key: C = confluent growth, i.e. no MIC could be determined at any concentration tested. The following applies: S. aureus, planktonic culture in Mueller-Hinton broth; mean of three replicate tests. As to the method: as §1, §2
The next experiment deals with Klebsiella pneumoniae. The experiment is described as above. In kind it is cell-based. Details: key: C = confluent growth, i.e. no MIC could be determined at any concentration tested. Particulars: K. pneumoniae, planktonic culture in Mueller-Hinton broth; mean of three replicate tests. Here is the method: as §1, §2
Experiment [3] relates to Escherichia coli IR57 (V7). Described as above. The format is cell-based. Details: key: C = confluent growth, i.e. no MIC could be determined at any concentration tested. Particulars: E. coli, planktonic culture in Mueller-Hinton broth; mean of three replicate tests. Here is the method: as §1, §2
Another experiment has as its system Streptococcus pyogenes. The experiment is described as above. Particulars: S. pyogenes, planktonic culture in Mueller-Hinton broth; mean of three replicate tests. In kind it is cell-based. Details: key: C = confluent growth, i.e. no MIC could be determined at any concentration tested. Here is the method: as §1, §2
Experiment [4] deals with Acinetobacter baumannii 7789 (V19). Described as above. Details: key: C = confluent growth, i.e. no MIC could be determined at any concentration tested. In kind it is cell-based. The following applies: A. baumannii, planktonic culture in Mueller-Hinton broth; mean of three replicate tests. Here is the method:
as §1, §2

Experiment [5] concerns isolated human neutrophils. Nature of the experiment: NETosis/necrosis assay, Hoescht/Sytox Green fluorescence. In kind it is cell-based. As to the method:
(§3) For these assays, neutrophils were isolated from fresh blood of a healthy human donor by lysis of a red blood cell pellet that had been obtained by Ficoll-Paque sedimentation. The neutrophils (˜4×10^6 cells/mL) were incubated with 10 μg/mL dihydroethidium (DHE) (Sigma-Aldrich) in complete culture medium at 37° C. for 15 min alongside an aliquot of unstained cells to be tested as unstained control.
NETosis/necrosis assays followed methods fully described by Brinkmann et al. 2010. Isolated neutrophils were plated into 96-well plates (RPMI1640, 10% FCS) and incubated with a 1:50,000 dilution of Hoescht (10 mg/mL) and Sytox® Green (5 mM). Compound 4 was added at six concentrations (0.005, 0.05, 0.5. 5, 50, 500 μM) and the cells incubated at 37° C., 5% CO2. Vehicle treated controls were included in all assays and there were three replicates of each assay. Hoescht/Sytox® Green fluorescence images were recorded for each well at 3 and 6 hours.

The test system of experiment [6] is A. baumannii 7789 biofilm. Briefly: Disruption of established in vitro biofilm, CLSM with COMSTAT image analysis. Particulars: 256 μg/mL. In kind it is cell-based, Acinetobacter baumannii. As to the method:
(§4) Biofilms of E. coli IR57 were grown on 96-well glass-bottomed plates in Mueller-Hinton (MH) broth for 24 h, before 50% of the supernatant was replaced with fresh MH broth with or without the epoxytiglienone compound added to a final concentration of 256 μg/mL (vehicle is ethanol). An ethanol equivalent blank was used as a further control treatment. The plates were then incubated for a further 24 h at 37° C.
(§5) Confocal laser scanning microscopy (CLSM) was then used to image the biofilms, following staining with Live/Dead® Baclight stain with phosphate buffered saline (PBS) added to each well before imaging with z-stack CLSM. The resultant images were analysed by COMSTAT software to produce measurements of (i) biofilm biomass volume or bio-volume (μm^3/μm^2) and (ii) DEAD/LIVE bacterial ratio.
The effects of the epoxytiglienones (Compounds 1, 4, 6 and the comparator compound CC-1) on disruption of established in vitro biofilms were further investigated with two other species of Gram-negative bacteria (Pseudomonas aeruginosa PA01 and Acinetobacter baumannii 7789) using methods described in Example 2 above. Cell permeabilisation following Compound 1, 4 and 6 treatment was also determined using SYTOX™ Green Nucleic Acid Stain with untreated control and positive control of 70% isopropanol.

The subject of a further experiment is E. coli IR57 biofilm. The description is as above. In kind it is cell-based, Escherichia coli. Particulars: E. coli IR57 24 h biofilm, 256 μg/mL, further 24 h; vs untreated and ethanol blank controls. Here is the method: The effects of administration of Compounds 1, 4 and 6 and comparator compound CC-1 on disruption of established in vitro biofilms of Escherichia coli (E. coli) was investigated using methods described in Powell et al. (2018).
as §4, §5

Experiment [7] deals with isolated human neutrophils. Briefly: LL-37 release from neutrophils, ELISA. The format is cell-based. The following applies: 3 hours after treatment, 62.5, 125, 250 and 500 μM. As to the method:
as §3
To examine antimicrobial peptide release by neutrophils in response to treatment with Compound 4, isolated neutrophils were incubated with either vehicle or Compound 4 at the four concentrations (62.5, 125, 250 and 500 μM). At 3 h, cell culture supernatants were removed and tested for LL-37 content using a LL-37-directed ELISA kit (Hycult Biotech). ELISA readings were normalised to vehicle only controls to determine fold increases in LL-37 release.

Take `CCCCCC(=O)OC1C(C)C2(O)C(C3OC3(CO)C(O)C3(O)C(=O)C(C)=CC32)C2C(C)(C)C12OC(=O)CCCCC` (stereo not drawn) [Compound 4, 12,13-dihexanoyl-6,7-epoxy-4,5,9,12,13,20-hexahydroxy-1-tiglien-3-one]: the Minimum inhibitory concentrations result in experiment [1] is “C”; in experiment [2], 512 µg/mL (≈ 864 µM); in the experiment with Klebsiella pneumoniae, “C”; in experiment [3], “C”; with Streptococcus pyogenes, 256 µg/mL (≈ 432 µM); in [4] it was “C”. The “chromatin appearance in neutrophils (more diffuse)” value in experiment [5] (50 μM) was “NETosis has occurred”. Moreover, the “chromatin appearance in neutrophils (condensed)” value in experiment [5] (500 μM) is recorded as “necrosis has occurred”. Besides, the “NETosis and necrosis of neutrophils” value is on record as “initially observed” in experiment [5] (3 hours after treatment, 50 μM and 500 μM); “evident” in experiment [5] (6 hours, four lower concentrations 0.005 μM-5 μM). For the same compound, in [6] (vs untreated and ethanol blank controls), the DEAD/LIVE bacterial ratio result is “no significant differences”. The “biofilm bio-volume (COMSTAT)” value was “significant reductions” in experiment [6] (vs untreated and ethanol blank controls (p<0.05)); “Decreases in bio-volume were evident” in the experiment with E. coli IR57 biofilm. Also, in the experiment with E. coli IR57 biofilm, the “distribution and density of bacteria in the biofilm (CLSM)” value is given as “significant changes”. For the same compound, the “Release of LL-37 from neutrophils” value in [7] was “increased in a concentration dependent manner”.
